Measurements: patent publication US11014941B2, “Pyrrolopyrimidine derivatives useful as inhibitors of influenza virus replication” (priority 2017, dated 2021)

Target: Influenza PB2 (Influenza A virus, UniProt P03428)
Assay: biochemical
Format: binding
Conditions: read-out: Influenza PB2 affinity, IC50

Chain of Influenza PB2 (P03428 whole entry, looked up): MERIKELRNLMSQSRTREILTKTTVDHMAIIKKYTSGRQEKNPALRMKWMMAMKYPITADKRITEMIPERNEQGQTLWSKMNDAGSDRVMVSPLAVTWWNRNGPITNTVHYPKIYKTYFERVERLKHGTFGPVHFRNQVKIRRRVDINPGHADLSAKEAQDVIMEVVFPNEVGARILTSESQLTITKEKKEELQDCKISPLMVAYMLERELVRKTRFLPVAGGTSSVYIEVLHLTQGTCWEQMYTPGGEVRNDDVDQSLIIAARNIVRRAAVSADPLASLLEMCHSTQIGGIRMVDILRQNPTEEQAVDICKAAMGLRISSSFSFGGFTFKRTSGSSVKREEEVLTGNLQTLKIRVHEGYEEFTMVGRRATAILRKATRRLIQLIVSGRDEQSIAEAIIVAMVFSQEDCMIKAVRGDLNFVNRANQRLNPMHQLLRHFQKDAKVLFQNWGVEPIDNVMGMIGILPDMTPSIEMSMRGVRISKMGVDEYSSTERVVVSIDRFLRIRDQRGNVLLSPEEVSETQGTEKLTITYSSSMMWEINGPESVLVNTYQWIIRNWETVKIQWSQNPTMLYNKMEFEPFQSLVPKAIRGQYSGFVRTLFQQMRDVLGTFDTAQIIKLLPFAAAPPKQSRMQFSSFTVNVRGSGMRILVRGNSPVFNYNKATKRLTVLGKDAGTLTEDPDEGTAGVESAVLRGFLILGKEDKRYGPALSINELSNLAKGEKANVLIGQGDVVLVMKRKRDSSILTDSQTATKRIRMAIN

| SMILES | IC50 |
| --- | --- |
| Fc1cnc2[nH]cc(-c3ncc4c(F)cn(CC5CCNCC5)c4n3)c2c1 [Compound B55] | > 100 µM |
| CNC(=O)CCn1cc(-c2c[nH]c3ncc(F)cc23)c2cncnc21 [Compound C11] | > 100 µM |
| N#CCCCCc1cn([C@@H]2C3CCC(CC3)[C@H]2C(=O)O)c2nc(-c3c[nH]c4ncc(F)cc34)ncc12 [Compound B193] | < 1 µM |
| COC(=O)[C@@H](Cc1ccccc1)NC(=O)CCn1ccc2c(-c3c[nH]c4ncc(F)cc34)ncnc21 [Compound A18] | > 100 µM |
| COC(=O)CCn1cc(-c2c[nH]c3ncc(F)cc23)c2cncnc21 [Compound C3] | > 100 µM |
| COC(=O)[C@H]1CCCC[C@@H]1n1ccc2cnc(-c3c[nH]c4ncc(F)cc34)nc21 [Compound B20] | 10 to 100 µM |
| CCOCCOCCCCCN(C)C(=O)N[C@@H]1CCC[C@H](n2ccc3cnc(-c4c[nH]c5ncc(F)cc45)nc32)C1 [Compound B45] | 10 to 100 µM |
| O=C(O)[C@H]1C2CCC(CC2)[C@@H]1n1cc(F)c2cnc(-c3c[nH]c4ncc(F)cc34)nc21 [Compound B131] | < 1 µM |
| C[C@]1(C(=O)O)CCCC[C@@H]1n1ccc2cnc(-c3c[nH]c4ncc(F)cc34)nc21 [Compound B71] | < 1 µM |
| CCOC(=O)[C@@H]1C2CCC(CC2)[C@H]1n1cc(C(F)(F)F)c2cnc(-c3c[nH]c4ncc(F)cc34)nc21 [Compound B177] | 10 to 100 µM |
| CCCCCOCCOCCNC(=O)N1CCC[C@H](n2ccc3cnc(-c4c[nH]c5ncc(F)cc45)nc32)C1 [Compound B33] | 10 to 100 µM |
| O=C(O)[C@@H]1C2CCC(CC2)[C@H]1n1cc(-c2ccoc2)c2cnc(-c3c[nH]c4ncc(F)cc34)nc21 [Compound B161] | < 1 µM |
| O=C(O)[C@@H]1C2CCC(CC2)[C@H]1n1cc(CCc2ccccn2)c2cnc(-c3c[nH]c4ncc(F)cc34)nc21 [Compound B186] | < 1 µM |
| O=C(O)[C@@H]1C2CCC(CC2)[C@H]1n1cc(-c2ccncc2)c2cnc(-c3c[nH]c4ncc(F)cc34)nc21 [Compound B147] | 1 to 10 µM |
| O=C(O)[C@H]1C2CCC(CC2)C1n1ccc2cnc(-c3c[nH]c4ncc(F)cc34)nc21 (some centres unmarked) [Compound B122] | 1 to 10 µM |
| CNC(=O)[C@@H]1CCCC[C@H]1n1cc(F)c2cnc(-c3c[nH]c4ncc(Cl)cc34)nc21 (racemic) [Compound B95] | 10 to 100 µM |
| COC(=O)C[C@H](NC(=O)Cn1ccc2c(-c3c[nH]c4ncc(F)cc34)ncnc21)C(=O)OC [Compound A12] | > 100 µM |
| O=C(O)CN1CCc2cnc(-c3c[nH]c4ncc(F)cc34)nc21 [Compound B9] | > 100 µM |
| O=C(O)[C@H]1CCCC1n1ccc2cnc(-c3c[nH]c4ncc(F)cc34)nc21 (single isomer, unassigned) [Compound B22] | 1 to 10 µM |
| O=C(O)Cn1cc(-c2c[nH]c3ncc(F)cc23)c2cncnc21 [Compound C4] | > 100 µM |
| CCOC(=O)C1=C(N2CCc3cnc(-c4c[nH]c5ncc(F)cc45)nc32)CCCC1 [Compound B51] | > 100 µM |
| C=Cc1cnc2[nH]cc(-c3ncc4c(F)cn([C@@H]5C6CCC(CC6)[C@H]5C(=O)O)c4n3)c2c1 [Compound B210] | 1 to 10 µM |
| O=C(O)[C@H]1C2CCC(CC2)[C@@H]1n1cc(F)c2cnc(-c3c[nH]c4ncc(Cl)cc34)nc21 [Compound B135] | < 1 µM |
| CCOCCOCCOCCNC(=O)N1CCC[C@H](n2ccc3cnc(-c4c[nH]c5ncc(F)cc45)nc32)C1 [Compound B31] | 10 to 100 µM |

| SMILES | IC50 |
| --- | --- |
| CN(C)C(=O)CCn1cc(-c2c[nH]c3ncc(F)cc23)c2cncnc21 [Compound C2] | > 100 µM |
| CCOC(=O)[C@H]1C2CCC(CC2)[C@@H]1n1cc(Cl)c2cnc(-c3c[nH]c4ncc(F)cc34)nc21 [Compound B126] | > 100 µM |
| O=C(O)[C@@H]1CCC[C@H](n2ccc3cnc(-c4c[nH]c5ncc(F)cc45)nc32)C1 [Compound B48] | 1 to 10 µM |
| COC(=O)N[C@H]1C2CCC(CC2)[C@@H]1n1cc(Cl)c2cnc(-c3c[nH]c4ncc(F)cc34)nc21 [Compound B149] | 1 to 10 µM |
| CCCCCOCCOCC(=O)N[C@@H]1CCC[C@H](n2ccc3cnc(-c4c[nH]c5ncc(F)cc45)nc32)C1 [Compound B39] | 10 to 100 µM |
| O=C(O)[C@@H]1C2CCC(CC2)[C@H]1n1ccc2cnc(-c3c[nH]c4ncc(F)cc34)cc21 [Compound B208] | 1 to 10 µM |
| N[C@H]1C2CCC(CC2)[C@@H]1n1cc(Cl)c2cnc(-c3c[nH]c4ncc(F)cc34)nc21 [Compound B167] | 1 to 10 µM |
| O=C(O)[C@@H]1C2CCC(CC2)C1n1cc(F)c2cnc(-c3c[nH]c4ncc(F)cc34)nc21 (some centres unmarked) [Compound B139] | 1 to 10 µM |
| CNC(=O)CNC(=O)[C@H]1C2CCC(CC2)[C@@H]1n1cc(Cl)c2cnc(-c3c[nH]c4ncc(F)cc34)nc21 [Compound B146] | 1 to 10 µM |
| O=C(O)[C@H]1CCCN1C(=O)Cn1ccc2c(-c3c[nH]c4ncc(F)cc34)ncnc21 [Compound A9] | 10 to 100 µM |
| C[C@@]1(C(=O)O)CCCC[C@H]1n1cc(F)c2cnc(-c3c[nH]c4ncc(Cl)cc34)nc21 [Compound B91] | < 1 µM |
| C[C@@]1(C(=O)O)CCCC[C@@H]1n1cc(Cl)c2cnc(-c3c[nH]c4ncc(F)cc34)nc21 [Compound B83] | 1 to 10 µM |
| CN(C)C(=O)N[C@H]1CCC[C@H](n2ccc3cnc(-c4c[nH]c5ncc(F)cc45)nc32)C1 [Compound B59] | 10 to 100 µM |
| O=C(O)C1=CCCCC1n1cc(F)c2cnc(-c3c[nH]c4ncc(Cl)cc34)nc21 (centres unmarked) [Compound B99] | < 1 µM |
| O=C(O)[C@H]1C2CCC(CC2)[C@@H]1n1cc(Cl)c2cnc(-c3c[nH]c4ncccc34)nc21 [Compound B140] | < 1 µM |
| CNC(=O)[C@@H]1CCCC[C@H]1n1cc(F)c2cnc(-c3c[nH]c4ncc(Cl)cc34)nc21 (single isomer, unassigned) [Compound B93] | 1 to 10 µM |
| CNC(=O)[C@@H]1C2CCC(CC2)C1n1cc(F)c2cnc(-c3c[nH]c4ncc(Cl)cc34)nc21 (single isomer, unassigned) [Compound B195] | 10 to 100 µM |
| O=C(O)C1=C(n2cc(F)c3cnc(-c4c[nH]c5ncc(Cl)cc45)nc32)CCCC1 [Compound B103] | < 1 µM |
| CNC(=O)[C@@H]1C2CCC(CC2)[C@H]1n1cc(F)c2cnc(-c3c[nH]c4ncc(Cl)cc34)nc21 [Compound B188] | 1 to 10 µM |
| COC(=O)NCCn1cc(-c2c[nH]c3ncc(F)cc23)c2cncnc21 [Compound C15] | > 100 µM |
| O=C(O)[C@@H]1C2CCC(CC2)C1n1cc(F)c2cnc(-c3c[nH]c4ncc(Cl)cc34)nc21 (single isomer, unassigned) [Compound B143] | < 1 µM |
| CN(C)C(=O)N[C@@H]1CCC[C@H](n2ccc3cnc(-c4c[nH]c5ncc(F)cc45)nc32)C1 [Compound B56] | 10 to 100 µM |
| NC(=O)C[C@H](NC(=O)Cn1ccc2c(-c3c[nH]c4ncc(F)cc34)ncnc21)C(=O)O [Compound A17] | 1 to 10 µM |
| CCOC(=O)[C@H]1C2CCC(CC2)[C@@H]1n1cc(C#CCCSC)c2cnc(-c3c[nH]c4ncc(F)cc34)nc21 [Compound B185] | > 100 µM |

| SMILES | IC50 |
| --- | --- |
| O=C(O)[C@@H]1C2CCC(CC2)[C@H]1n1cc(-c2ccncc2F)c2cnc(-c3c[nH]c4ncc(Cl)cc34)nc21 (relative stereo) [Compound B211] | 1 to 10 µM |
| CC(CC(=O)O)n1cc(-c2c[nH]c3ncc(F)cc23)c2cncnc21 (centres unmarked) [Compound C8] | 10 to 100 µM |
| CCOCCOCCCCCNC(=O)N[C@@H]1CCC[C@H](n2ccc3cnc(-c4c[nH]c5ncc(F)cc45)nc32)C1 [Compound B40] | > 100 µM |
| O=C(Cn1ccc2cnc(-c3c[nH]c4ncc(F)cc34)nc21)N[C@@H](Cc1ccccc1)C(=O)O [Compound B14] | 10 to 100 µM |
| CC(C)(C)C(C(=O)O)n1ccc2cnc(-c3c[nH]c4ncc(F)cc34)nc21 (centres unmarked) [Compound B84] | 1 to 10 µM |
| CCCCCOCCCCCN(C)C(=O)N[C@@H]1CCC[C@H](n2ccc3cnc(-c4c[nH]c5ncc(F)cc45)nc32)C1 [Compound B44] | > 100 µM |
| CCOCc1ccc(C(=O)N[C@H]2CCC[C@@H](n3cc(F)c4cnc(-c5c[nH]c6ncc(Cl)cc56)nc43)C2)nc1 [Compound B101] | > 100 µM |
| C[C@H](NC(=O)Cn1ccc2c(-c3c[nH]c4ncc(F)cc34)ncnc21)C(=O)O [Compound A7] | 10 to 100 µM |
| CN(C)C(=O)CCn1ccc2c(-c3c[nH]c4ncc(F)cc34)ncnc21 [Compound A4] | 10 to 100 µM |
| COC(=O)[C@H](Cc1ccccc1)NC(=O)Cn1ccc2c(-c3c[nH]c4ncc(F)cc34)ncnc21 [Compound A8] | > 100 µM |
| CCOCCCCCOCCNC(=O)N[C@@H]1CCC[C@H](n2ccc3cnc(-c4c[nH]c5ncc(F)cc45)nc32)C1 [Compound B38] | > 100 µM |
| CCCCCOCCCCCNC(=O)N1CCC[C@H](n2ccc3cnc(-c4c[nH]c5ncc(F)cc45)nc32)C1 [Compound B34] | > 100 µM |
| O=C(O)[C@H]1C2CCC(CC2)[C@@H]1n1ccc2cnc(-c3c[nH]c4ncc(Cl)cc34)nc21 [Compound B124] | 1 to 10 µM |
| O=C(O)C1=C(n2cc(F)c3cnc(-c4c[nH]c5ncc(Cl)cc45)nc32)C2CCC1CC2 [Compound B213] | < 1 µM |
| O=C(O)[C@H]1C2CCC(CC2)[C@@H]1n1ccc2cnc(-c3c[nH]c4ncc(F)cc34)nc21 [Compound B123] | 1 to 10 µM |
| COC(=O)[C@@]1(C)CCCC[C@@H]1n1ccc2cnc(-c3c[nH]c4ncc(F)cc34)nc21 [Compound B67] | 10 to 100 µM |
| Fc1cnc2[nH]cc(-c3ncc4c(F)cn(CC5CCCCN5)c4n3)c2c1 (centres unmarked) [Compound B76] | 10 to 100 µM |
| CCOCCOCCCCCNC(=O)N1CCC[C@H](n2ccc3cnc(-c4c[nH]c5ncc(F)cc45)nc32)C1 [Compound B37] | > 100 µM |
| O=C(O)[C@H]1C2CCC(CC2)[C@@H]1n1cc(Cl)c2cnc(-c3c[nH]c4ncc(Cl)cc34)nc21 [Compound B130] | 1 to 10 µM |
| CNC(=O)NC1CCCC(n2ccc3cnc(-c4c[nH]c5ncc(F)cc45)nc32)C1 (centres unmarked) [Compound B57] | 10 to 100 µM |
| O=C(N[C@H]1CCC[C@@H](n2cc(F)c3cnc(-c4c[nH]c5ncc(Cl)cc45)nc32)C1)N1CCc2ccccc21 [Compound B102] | > 100 µM |
| Fc1cnc2[nH]cc(-c3ncc4c(F)cn(CC5CCCNC5)c4n3)c2c1 (centres unmarked) [Compound B60] | 10 to 100 µM |
| COC(=O)[C@@]1(C)CCCC[C@H]1n1cc(Cl)c2cnc(-c3c[nH]c4ncc(F)cc34)nc21 [Compound B81] | > 100 µM |
